Results from US20100179227A1, “Production method of hop preparation, hop preparation, anti-inflammatory agent, food product and beverage, and oral product” (priority 2006, published 2010).

Legend:
[1] = molecular target: cyclooxygenase-1 (COX-1) (Homo sapiens, UniProt P23219); conditions: according to Non-Patent Document 1; cited from earlier work
[2] = test system: mRNA of COX-2 gene; assay: Suppression of COX-2 mRNA expression in gingival epithelial cells stimulated with P. gingivalis vesicles (real-time RT-PCR); type: cell-based; conditions: human gingival epithelium-derived immortalized cells stimulated with P. gingivalis-derived vesicles; mRNA measured 24 hours after addition, standardized to GAPDH mRNA
Description: The expression levels of mRNA of COX-2 gene were determined.
The P. gingivalis-derived vesicles were prepared as follows: P. gingivalis strain (ATCC 33277) was cultured for 3 days and the cells were removed from the 500 ml culture by centrifugation and filtration. The supernatant was ultracentrifuged at 100,000 G at 4° C. for 1 hour to obtain the desired vesicles. The expression levels of mRNA of COX-2 gene were determined by measuring the amounts of mRNA by real-time RT-PCR 24 hours after addition of each substance. The PCR was performed by using primers specific for the COX-2 gene and amplification was carried out for 45 cycles. The amount of mRNA was standardized to the amount of mRNA of glyceraldehyde-3-phosphate dehydrogenase.
The 80% ethanol fraction obtained in Example 1 was fractionated by reverse-phase HPLC and the resulting fractions corresponding to the respective peaks were collected. As in Example 2, the fractions were incubated with human gingival epithelium-derived immortalized cells stimulated with the vesicles obtained from P. gingivalis (inflammation-inducing agent). The expression levels of mRNA of COX-2 were determined.

[3] = as described in Patent Documents 1, 2 and 5; cited from earlier work

Chain of cyclooxygenase-1 (COX-1) (P23219 24-599, species assumed): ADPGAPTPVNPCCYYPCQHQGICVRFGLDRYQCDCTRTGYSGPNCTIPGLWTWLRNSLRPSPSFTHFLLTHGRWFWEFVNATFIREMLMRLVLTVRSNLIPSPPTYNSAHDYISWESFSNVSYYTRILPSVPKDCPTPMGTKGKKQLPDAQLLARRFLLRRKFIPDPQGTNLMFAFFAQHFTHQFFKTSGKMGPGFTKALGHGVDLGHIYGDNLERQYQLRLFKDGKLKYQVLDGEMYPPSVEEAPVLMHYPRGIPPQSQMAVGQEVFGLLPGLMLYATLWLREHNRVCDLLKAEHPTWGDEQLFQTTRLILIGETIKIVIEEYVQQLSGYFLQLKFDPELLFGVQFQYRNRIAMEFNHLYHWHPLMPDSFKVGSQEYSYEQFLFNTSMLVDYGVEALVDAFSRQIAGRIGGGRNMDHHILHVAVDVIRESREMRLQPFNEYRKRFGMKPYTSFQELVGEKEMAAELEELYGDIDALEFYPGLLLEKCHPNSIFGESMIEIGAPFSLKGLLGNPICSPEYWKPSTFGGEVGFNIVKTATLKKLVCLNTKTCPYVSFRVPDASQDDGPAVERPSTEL

## CC(C)C(=O)c1c(O)cc(O)cc1O[C@@H]1O[C@H](CO)[C@@H](O)[C@H](O)[C@H]1O [MPPG, 2-[(2-methylpropanyl)-phloroglucinol]-1-O-β-D-glucopyranoside]
[1]
  inhibition of cyclooxygenase-1 (COX-1): inhibits cyclooxygenase-1 (COX-1)
[2]
  suppression of the expression of mRNA of COX-2 gene: activity

## O=c1c(O[C@@H]2O[C@H](CO)[C@@H](O)[C@H](O)[C@H]2O)c(-c2ccc(O)cc2)oc2cc(O)cc(O)c12 [astragalin, kaempferol-3-O-β-D-glucopyranoside]
[3]
  anti-inflammatory activity: exhibit anti-inflammatory activity
[2]
  suppression of the expression of mRNA of COX-2 gene: activity

## O=c1c(O[C@@H]2O[C@H](CO)[C@@H](O)[C@H](O)[C@H]2O)c(-c2ccc(O)c(O)c2)oc2cc(O)cc(O)c12 [isoquercitrin, quercetin-3-O-β-D-glucopyranoside]
[3]
  anti-inflammatory activity: exhibit anti-inflammatory activity
[2]
  suppression of the expression of mRNA of COX-2 gene: activity
